ChEMBL document CHEMBL4376837, “New Dual Small Molecules for Alzheimer's Disease Therapy Combining Histamine H3 Receptor (H3R) Antagonism and Calcium Channels Blockade with Additional Cholinesterase Inhibition” (J Med Chem, 2019)
Activity calls are given as the source filed them. No cut-off for these calls is given here.

How the values were obtained:
[1] = Antioxidant activity assessed as Trolox equivalents incubated for 15 mins by fluorescein based ORAC-FL assay; type: functional
[2] = Inhibition of human recombinant AChE using acetylthiocholine iodide substrate by Ellman's protocol based assay
Histamine H3 receptor = Histamine H3 receptor (Homo sapiens, UniProt Q9Y5N1); assay: Displacement of [3H]-N-alpha-methylhistamine from human H3 receptor expressed in HEK293 cell membranes incubated for 60 mins by scintillation counting method; design: concentration or dose not given beside the values
Sequence of Histamine H3 receptor (Q9Y5N1 whole entry): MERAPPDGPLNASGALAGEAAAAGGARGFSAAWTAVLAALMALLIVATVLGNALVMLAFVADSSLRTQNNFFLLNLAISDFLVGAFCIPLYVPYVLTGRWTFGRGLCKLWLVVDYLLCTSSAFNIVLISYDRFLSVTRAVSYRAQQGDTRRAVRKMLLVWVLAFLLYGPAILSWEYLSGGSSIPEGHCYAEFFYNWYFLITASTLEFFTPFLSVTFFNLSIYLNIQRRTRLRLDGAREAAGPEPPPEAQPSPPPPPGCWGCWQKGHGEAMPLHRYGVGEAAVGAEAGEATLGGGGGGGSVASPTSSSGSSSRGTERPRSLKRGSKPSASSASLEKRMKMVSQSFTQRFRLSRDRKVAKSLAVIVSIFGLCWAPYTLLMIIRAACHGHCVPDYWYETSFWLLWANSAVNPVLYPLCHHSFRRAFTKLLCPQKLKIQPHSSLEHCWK

[3] = molecular target: Voltage-gated L-type calcium channel (Homo sapiens, UniProt Q13936+Q13698+Q01668+O60840); assay: Inhibition of voltage-dependent L-type calcium channel in 70 mM K+-induced human SH-SY5Y cells assessed as blocking of depolarization-induced Ca2+ uptake by Fluo-4/AM dye based fluorescence microplate reader assay; type: cell-based
Cholinesterase = Cholinesterase (Homo sapiens, UniProt P06276); assay: Inhibition of BuChE in human plasma using butyrylthiocholine iodide substrate by Ellman's protocol based assay; type: cell-free
Sequence of Cholinesterase (P06276 whole entry): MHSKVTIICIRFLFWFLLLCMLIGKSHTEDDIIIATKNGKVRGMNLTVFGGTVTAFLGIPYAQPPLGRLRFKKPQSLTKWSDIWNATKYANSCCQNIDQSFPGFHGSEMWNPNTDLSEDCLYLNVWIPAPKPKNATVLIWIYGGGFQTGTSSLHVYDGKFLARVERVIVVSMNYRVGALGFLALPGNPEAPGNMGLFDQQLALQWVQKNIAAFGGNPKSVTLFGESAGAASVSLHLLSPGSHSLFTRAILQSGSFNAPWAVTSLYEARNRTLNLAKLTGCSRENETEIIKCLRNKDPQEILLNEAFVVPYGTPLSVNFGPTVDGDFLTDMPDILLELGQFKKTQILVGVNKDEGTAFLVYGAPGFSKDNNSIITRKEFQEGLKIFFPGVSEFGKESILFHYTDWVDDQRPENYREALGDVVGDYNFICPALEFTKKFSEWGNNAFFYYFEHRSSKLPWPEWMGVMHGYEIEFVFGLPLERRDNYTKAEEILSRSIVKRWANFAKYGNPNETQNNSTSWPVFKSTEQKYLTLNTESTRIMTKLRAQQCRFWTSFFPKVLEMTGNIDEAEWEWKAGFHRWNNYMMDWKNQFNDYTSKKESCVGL

SH-SY5Y [4] = assay: Neuroprotective activity against okadaic acid-induced cytotoxicity in human SH-SY5Y cells assessed as protection against cell death at 1 uM incubated for 24 hrs by MTT assay relative to control; type: functional
Histamine H4 receptor = Histamine H4 receptor (Homo sapiens, UniProt Q9H3N8); assay: Antagonist activity at human H4 receptor expressed in CHO-K1 cells co-expressing G protein alpha16 assessed as inhibition of histamine-induced calcium mobilization incubated for 16 hrs by aequorin-based functional assay; type: cell-based
Sequence of Histamine H4 receptor (Q9H3N8 whole entry): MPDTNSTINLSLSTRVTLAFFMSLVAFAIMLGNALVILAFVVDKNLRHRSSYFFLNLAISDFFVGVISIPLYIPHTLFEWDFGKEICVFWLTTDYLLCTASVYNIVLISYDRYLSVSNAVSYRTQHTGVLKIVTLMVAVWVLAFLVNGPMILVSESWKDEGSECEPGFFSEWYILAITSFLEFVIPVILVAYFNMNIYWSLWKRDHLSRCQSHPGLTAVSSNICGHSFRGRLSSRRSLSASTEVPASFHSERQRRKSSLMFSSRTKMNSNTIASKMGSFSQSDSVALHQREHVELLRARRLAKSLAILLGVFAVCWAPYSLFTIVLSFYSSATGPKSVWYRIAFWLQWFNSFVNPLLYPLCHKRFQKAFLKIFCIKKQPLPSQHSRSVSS

SH-SY5Y [5] = assay: Neuroprotective activity against okadaic acid-induced cytotoxicity in human SH-SY5Y cells assessed as protection against cell death at 3 uM incubated for 24 hrs by MTT assay relative to control; type: functional
SH-SY5Y [6] = assay: Neuroprotective activity against Rotenone/Oligomycin A-induced cytotoxicity in human SH-SY5Y cells assessed as protection against cell death at 0.3 uM incubated for 24 hrs by MTT assay relative to control; type: functional
SH-SY5Y [7] = assay: Neuroprotective activity against Rotenone/Oligomycin A-induced cytotoxicity in human SH-SY5Y cells assessed as protection against cell death at 3 uM incubated for 24 hrs by MTT assay relative to control; type: functional
SH-SY5Y [8] = assay: Neuroprotective activity against okadaic acid-induced cytotoxicity in human SH-SY5Y cells assessed as protection against cell death at 0.1 uM incubated for 24 hrs by MTT assay relative to control; type: functional
[9] = molecular target: Histamine H1 receptor (Homo sapiens) (UniProt P35367); assay: Displacement of [3H]-Pyrilamine from human H1 receptor expressed in CHO-K1 cell membranes incubated for 60 mins by scintillation counting method
Sequence of Histamine H1 receptor (Homo sapiens) (P35367 whole entry): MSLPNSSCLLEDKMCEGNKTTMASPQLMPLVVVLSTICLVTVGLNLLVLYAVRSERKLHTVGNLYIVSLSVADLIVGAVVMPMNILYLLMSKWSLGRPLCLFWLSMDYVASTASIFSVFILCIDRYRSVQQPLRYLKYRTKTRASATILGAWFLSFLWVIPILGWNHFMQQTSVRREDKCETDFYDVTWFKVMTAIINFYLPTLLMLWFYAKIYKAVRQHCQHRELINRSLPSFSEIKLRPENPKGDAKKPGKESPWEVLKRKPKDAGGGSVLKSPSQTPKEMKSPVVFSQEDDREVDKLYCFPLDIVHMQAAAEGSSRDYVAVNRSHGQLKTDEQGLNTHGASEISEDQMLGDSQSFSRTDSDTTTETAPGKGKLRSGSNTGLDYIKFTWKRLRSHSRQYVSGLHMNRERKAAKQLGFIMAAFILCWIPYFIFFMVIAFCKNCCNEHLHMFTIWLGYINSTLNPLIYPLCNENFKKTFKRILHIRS

Mus musculus [10] = assay: Neuroprotective activity in mouse model of LPS-induced induced memory impairment assessed as improvement in discrimination index at 10 mg/kg, ip by novel object recognition test; type: functional, organism-based
SH-SY5Y [11] = assay: Neuroprotective activity against Rotenone/Oligomycin A-induced cytotoxicity in human SH-SY5Y cells assessed as protection against cell death at 1 uM incubated for 24 hrs by MTT assay relative to control; type: functional
SH-SY5Y [12] = assay: Neuroprotective activity against okadaic acid-induced cytotoxicity in human SH-SY5Y cells assessed as protection against cell death at 0.3 uM incubated for 24 hrs by MTT assay relative to control; type: functional
SH-SY5Y [13] = assay: Neuroprotective activity against Rotenone/Oligomycin A-induced cytotoxicity in human SH-SY5Y cells assessed as protection against cell death at 0.1 uM incubated for 24 hrs by MTT assay relative to control; type: functional
[14] = Permeability at 100 uM by PAMPA method
Aorta [15] = assay: Vasodilating activity in Wistar rat endothelium-denuded aortic rings preconstricted with 100 mM KCl assessed as vasorelaxation at 1 nM relative to control; design: scale not given: the % may be the effect or the level left; conditions: 0.001 µM
Aorta [16] = assay: Vasodilating activity in Wistar rat endothelium-denuded aortic rings preconstricted with 100 mM KCl assessed as vasorelaxation at 0.1 nM relative to control; design: scale not given: the % may be the effect or the level left; conditions: 0.0001 µM
Aorta [17] = assay: Vasodilating activity in Wistar rat endothelium-denuded aortic rings preconstricted with 100 mM KCl assessed as vasorelaxation at 10 nM relative to control; design: scale not given: the % may be the effect or the level left; conditions: 0.01 µM
Mus musculus [18] = assay: Neuroprotective activity in mouse model of LPS-induced induced memory impairment assessed as improvement in discrimination index at 1 mg/kg, ip by novel object recognition test; type: functional, organism-based

**Q.** What does the source list for `CCOC(=O)C1=C(C)NC(C)=C(C(=O)OCC)C1c1ccc(OCCN2CCCCC2)cc1`?
**A.** Activity [1]: 2.4 equiv; inhibition [2]: inactive; inhibition (Histamine H3 receptor): 18%

**Q.** With `CCOC(=O)C1=C(C)NC(C)=C(C(=O)OCC)C1c1ccc(OCCN2CCCCC2)c(OC)c1` as the compound, how does the IC50 [3] read?
**A.** 26 µM

**Q.** And the Activity [1]?
**A.** 3.9 equiv

**Q.** What about the inhibition [2] of the same compound?
**A.** inactive

**Q.** What about the inhibition (Histamine H3 receptor) of the same compound?
**A.** < 5%

**Q.** What does the source list for `CCOC(=O)C1=C(C)NC(C)=C(C(=O)OCC)C1c1ccc(OCCCCCN2CCCC2)cc1`?
**A.** IC50 (Cholinesterase): 6.07 µM; Activity (SH-SY5Y [4]): 18.5%; inhibition (Histamine H4 receptor): inactive; Activity (SH-SY5Y [5]): 16%; Activity (SH-SY5Y [6]): 48.9%; Activity [1]: 2.8 equiv; Activity (SH-SY5Y [7]): 35.4%; Activity (SH-SY5Y [8]): 7.21%; inhibition [9]: inactive; Activity (Mus musculus [10]): inactive; Activity (SH-SY5Y [11]): 52.8%; inhibition [2]: inactive; Ki (Histamine H3 receptor): 0.425 µM; Activity (SH-SY5Y [12]): 8.81%; Activity (SH-SY5Y [13]): 35.5%; Papp at 100 µM [14]: 10 ×10⁻⁶ cm/s

**Q.** Which Activity (SH-SY5Y [8]) does the source give for `COc1ccc2[nH]cc(CCNC(C)=O)c2c1` [MELATONIN] here?
**A.** 76%

**Q.** And the Activity (SH-SY5Y [13])?
**A.** 58.2%

**Q.** Which IC50 [3] does the source give for `CCOC(=O)C1=C(C)NC(C)=C(C(=O)OCC)C1c1ccc(OCCN2CCCCCC2)c(Cl)c1` here?
**A.** 4 µM

**Q.** What about the Activity [1] of the same compound?
**A.** 2.4 equiv

**Q.** And the inhibition [2]?
**A.** inactive

**Q.** What about the inhibition (Histamine H3 receptor) of the same compound?
**A.** 19%

**Q.** For `CCOC(=O)C1=C(C)NC(C)=C(C(=O)OCC)C1c1ccc(OCCCN2CCCC2)c(OCC)c1`, which Activity [1] is on record?
**A.** 2.8 equiv

**Q.** And the inhibition [2]?
**A.** inactive

**Q.** And the inhibition (Histamine H3 receptor)?
**A.** 19%

**Q.** With `COC(=O)C1=C(C)NC(C)=C(C(=O)OC)C1c1ccccc1[N+](=O)[O-]` [NIFEDIPINE] as the compound, how does the Activity (Aorta [15]; Aorta) read?
**A.** 37%

**Q.** What about the Activity (Aorta [16]; Aorta) of the same compound?
**A.** 12%

**Q.** And the Activity (Aorta [17]; Aorta)?
**A.** 81%

**Q.** Which results are given for `CCOC(=O)C1=C(C)NC(C)=C(C(=O)OCC)C1c1ccc(OCCCCN2CCCCC2)cc1`?
**A.** Activity [1]: 2.2 equiv; inhibition [2]: inactive; inhibition (Histamine H3 receptor): 49%

**Q.** With `CCOC(=O)C1=C(C)NC(C)=C(C(=O)OCC)C1c1ccc(OCCN2CCCCCC2)c(Br)c1` as the compound, how does the IC50 [3] read?
**A.** 1.5 µM

**Q.** What about the Activity [1] of the same compound?
**A.** 3 equiv

**Q.** What about the inhibition [2] of the same compound?
**A.** inactive

**Q.** And the inhibition (Histamine H3 receptor)?
**A.** 8%

**Q.** With `COc1cc2c(cc1OC)C(=O)C(CC1CCN(Cc3ccccc3)CC1)C2` (stereo not given) as the compound, how does the Activity (Mus musculus [18]) read?
**A.** Active

**Q.** With `CCOC(=O)C1=C(C)NC(C)=C(C(=O)OCC)C1c1ccc(OCCN2CCCCC2)c(Cl)c1` as the compound, how does the IC50 [3] read?
**A.** 2.9 µM

**Q.** What about the Activity [1] of the same compound?
**A.** 2.5 equiv

**Q.** What about the inhibition [2] of the same compound?
**A.** inactive

**Q.** And the inhibition (Histamine H3 receptor)?
**A.** 17%

**Q.** Which IC50 (Cholinesterase) does the source give for `CCOC(=O)C1=C(C)NC(C)=C(C(=O)OCC)C1c1ccc(OCCCCN2CCCC2)cc1` here?
**A.** 7.22 µM

**Q.** What about the Activity [1] of the same compound?
**A.** 3.3 equiv

**Q.** What about the inhibition [2] of the same compound?
**A.** inactive

**Q.** And the Ki (Histamine H3 receptor)?
**A.** 0.06 µM

**Q.** What does the source list for `CCOC(=O)C1=C(C)NC(C)=C(C(=O)OCC)C1c1ccc(OCCCN2CCCCC2)c(OCC)c1`?
**A.** Activity [1]: 2.4 equiv; inhibition [2]: inactive; Ki (Histamine H3 receptor): 1.62 µM

**Q.** With `CCOC(=O)C1=C(C)NC(C)=C(C(=O)OCC)C1c1ccc(OCCCN2CCCCC2)cc1` as the compound, how does the Activity [1] read?
**A.** 2.3 equiv

**Q.** And the inhibition [2]?
**A.** inactive

**Q.** What about the Ki (Histamine H3 receptor) of the same compound?
**A.** 0.04 µM

**Q.** For `CCOC(=O)C1=C(C)NC(C)=C(C(=O)OCC)C1c1ccc(OCCCCCN2CCCCC2)cc1`, which IC50 (Cholinesterase) is on record?
**A.** 7.83 µM

**Q.** What about the Activity (SH-SY5Y [4]) of the same compound?
**A.** 41.8%

**Q.** And the IC50 (Histamine H4 receptor)?
**A.** 1.4 µM

**Q.** And the Activity (SH-SY5Y [5])?
**A.** 20.9%

**Q.** And the Activity (SH-SY5Y [6])?
**A.** 35.1%

**Q.** What about the Activity [1] of the same compound?
**A.** 3.6 equiv

**Q.** And the Activity (Aorta [15])?
**A.** Non-Toxic

**Q.** What about the Activity (SH-SY5Y [7]) of the same compound?
**A.** 49.9%

**Q.** What about the Activity (SH-SY5Y [8]) of the same compound?
**A.** inactive

**Q.** And the inhibition [9]?
**A.** inactive

**Q.** And the Activity (Mus musculus [10])?
**A.** Active

**Q.** What about the Activity (SH-SY5Y [11]) of the same compound?
**A.** 64.8%

**Q.** And the inhibition [2]?
**A.** inactive

**Q.** And the Ki (Histamine H3 receptor)?
**A.** 0.565 µM

**Q.** And the Activity (Aorta [16])?
**A.** Non-Toxic

**Q.** What about the Activity (SH-SY5Y [12]) of the same compound?
**A.** inactive

**Q.** And the Activity (Aorta [17])?
**A.** 5%

**Q.** What about the Activity (SH-SY5Y [13]) of the same compound?
**A.** 17%

**Q.** And the Papp at 100 µM [14]?
**A.** 8.6 ×10⁻⁶ cm/s

**Q.** Which Activity [1] does the source give for `CCOC(=O)C1=C(C)NC(C)=C(C(=O)OCC)C1c1ccc(OCCCN2CCCC2)cc1` here?
**A.** 3.5 equiv

**Q.** And the inhibition [2]?
**A.** inactive

**Q.** What about the Ki (Histamine H3 receptor) of the same compound?
**A.** 0.083 µM

**Q.** For `CCOC(=O)C1=C(C)NC(C)=C(C(=O)OCC)C1c1ccc(OCCN2CCCCC2)c(Br)c1`, which IC50 [3] is on record?
**A.** 2.8 µM

**Q.** What about the Activity [1] of the same compound?
**A.** 2.2 equiv

**Q.** And the inhibition [2]?
**A.** inactive

**Q.** And the inhibition (Histamine H3 receptor)?
**A.** 37%

**Q.** With `COc1cc(/C=C/C(=O)O)ccc1O` as the compound, how does the Activity [1] read?
**A.** 3.7 equiv

**Q.** For `CCOC(=O)C1=C(C)NC(C)=C(C(=O)OCC)C1c1ccc(OCCCN2CCCC2)c(OC)c1`, which Activity [1] is on record?
**A.** 2.3 equiv

**Q.** What about the inhibition [2] of the same compound?
**A.** inactive

**Q.** And the inhibition (Histamine H3 receptor)?
**A.** 23%

**Q.** With `CCOC(=O)C1=C(C)NC(C)=C(C(=O)OCC)C1c1ccc(OCCCN2CCCCC2)c(OC)c1` as the compound, how does the Activity [1] read?
**A.** 2.3 equiv

**Q.** And the inhibition [2]?
**A.** inactive

**Q.** And the inhibition (Histamine H3 receptor)?
**A.** 20%
